Laboratory results: patent US6890736B1, “Methods for producing proteins in cultured cells” (Immunex Corporation, priority 2002, dated 2005)

System: cell line 25H9 (CHO cells that produce IL-1R-II protein)
Assay: Example 3: induction with 5-bromo-2′-deoxycytidine 5′-monophosphate, IL-1R-II production
Format: cell-based, Chinese hamster
Details: 31° C., 10 μM
Description: About 2×10^6 cells of cell line 25H9 were inoculated into 30 milliliters of serum-free medium and incubated at the temperatures indicated in Table 1 in vented shake flasks. At the times indicated in Table 1, samples were taken from each flask to determine IL-1R-II titer, cell number, and cell viability. IL-1R-II protein titer was determined by ELISA assay. Cell number was determined by counting cells in a hemocytometer. Cell viability was determined by trypan blue staining and counting stained cells in a hemocytometer. Cumulative viable cell density (CVCD) is the area under the curve of a plot of the viable cell density versus time (in units of cells/ml/day). Productivity (pg of IL-1R-II/cell/day) was determined by dividing the protein titer on a particular day by the CVCD on the same day. Cells were fed with amino acids on days 2 and 5, and dextrose was added periodically in order to maintain levels above 2.0 g/L. All samples were done in duplicate, and the data shown is an average value.
The following experiment compares the effects of 5-bromo-2′-deoxycytidine 5′-monophosphate and 5-aza-2′-deoxycytidine on induction of protein production. The experiment was done as described in Example 1 with the following exceptions. All cultures were incubated at 31° C., and cell number and viability were determined using a Guava PCA Cytometer (available from Guava Technologies, Hayward, Calif., USA). Samples were done in triplicate.

Structure (SMILES): Nc1ncn([C@H]2C[C@H](O)[C@@H](CO)O2)c(=O)n1 [decitabine, 5-aza-2′-deoxycytidine]
- Titer of IL-1R-II (day 0): 0.0 mg/L
- Productivity (day 2): 12.2 pg of IL-1RII/cell/day
- Titer of IL-1R-II (day 2): 58.5 mg/L
- Productivity (day 5): 13.3 pg of IL-1RII/cell/day
- Titer of IL-1R-II (day 5): 148.5 mg/L
- Productivity (day 7): 14.1 pg of IL-1RII/cell/day
- Titer of IL-1R-II (day 7): 197.5 mg/L
- Productivity (day 9): 14.9 pg of IL-1RII/cell/day
- Titer of IL-1R-II (day 9): 238.4 mg/L
